The text below walks through data of patent publication US20180344768A1, “NK CELL-BASED THERAPY” (Onkimmune Limited, priority 2016, published 2018).

Read-outs that look alike come from different tables or passages of the source. A value given as a limit tells only on which side of the number the result lay.

As usually defined, the Kd is the constant that tells how readily two partners part at equilibrium.

The subject of one data set is LIR2 gene. Nature of the data set: gRNA cleavage activity, T7E1 mismatch detection assay in K562 cells. In kind it is cell-based, human. The following applies: CRISPR/Cas9, agarose gel after T7E1. The text has this: (§1) Two gRNA candidates were selected for each target gene and their cleavage efficacies in K562 cells determined. The sequences of the gRNA candidates are shown in Table 1 and the Protospacer Adjacent Motif (PAM) relates to the last 3 bases of the sequence. The flanking regions of the gRNA sequences on the LIR2 gene (SEQ ID NO: 1; amino acid translation SEQ ID NO: 2) and the CTLA4 gene (SEQ ID NO: 7; amino acid translation SEQ ID NO: 8) are shown in FIGS. 1 and 2, respectively.
(§2) K562 cells were transfected with the prepared gRNA constructs (FIG. 3) and subsequently harvested for PCR amplification. The presence of GFP expression was used to report successful incorporation of the gRNA construct into the K562 cells. This confirmed expression of the Cas9 gene and therefore the ability to knock out expression of the LIR2 and CTLA4 genes.
(§3) The cleavage activity of the gRNA constructs was determined using an in vitro mismatch detection assay. T7E1 endonuclease I recognizes and cleaves non-perfectly matched DNA, allowing the parental LIR2 and CTLA4 genes to be compared to the mutated genes following CRISPR/Cas9 transfection and non-homologous end joining (NHEJ).
The three bands corresponding to each mutation relate to the parental gene and the two resulting strands following detection of a mismatch in the DNA sequence after transfection.

The target in a further data set is T1, decoy receptor DcR1 (Homo sapiens, UniProt O14798).
T1 sequence (O14798 26-236): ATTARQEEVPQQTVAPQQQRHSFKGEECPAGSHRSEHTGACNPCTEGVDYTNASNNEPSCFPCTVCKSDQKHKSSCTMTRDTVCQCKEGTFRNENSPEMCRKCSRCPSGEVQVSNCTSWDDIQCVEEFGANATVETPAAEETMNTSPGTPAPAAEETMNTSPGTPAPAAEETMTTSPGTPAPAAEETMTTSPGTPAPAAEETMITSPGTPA
To be noted: surface plasmon resonance; cited from earlier work. (In general: In SPR one partner is held on a chip, and binding of the other changes the refractive index at the surface.)

In another data set the target is DR4 (Homo sapiens, UniProt O00220). To be noted: surface plasmon resonance; cited from earlier work.
The test system of a further data set is CTLA4 gene. Nature of the data set: gRNA cleavage activity, T7E1 mismatch detection assay in K562 cells. The format is cell-based, human. To be noted: CRISPR/Cas9, agarose gel after T7E1.
Source text: as §1, §2, §3

Another data set relates to perforin. Briefly: CMA-induced reduction of perforin expression in KHYG-1 cells. The format is cell-based, human. The following applies: 100 nM for 2 hours. Here is the method: Mouse anti-human perforin-AF647 (catalog number: 563576) was bought from BD Pharmingen. Concanamycin A (catalog number: SC-202111) was bought from Santa Cruz Biotechnology. The stained cell samples were analyzed using a BD FACS Canto II. […] (2) KHYG-1 cells (6 hours after electroporation, cultured in penicillin/streptomycin free RPMI1640 medium) were further treated with 100 nM CMA or equal volume of vehicle (DMSO) for 2 hours. (3) The cells were collected (1×10^6 cells/test) by centrifugation (1500 rpm×5 minutes) and the supernatant was aspirated. (4) The cells were fixed in 4% paraformaldehyde in PBS solution at room temperature for 15 minutes. (5) The cells were washed with 4 mL of FACS Buffer (PBS, 0.5-1% BSA, 0.1% sodium azide) twice. (6) The cells were permeabilized with 1 mL of PBS/0.1% saponin buffer for 30 minutes at room temperature. (7) The cells were washed with 4 mL of PBS/0.1% saponin buffer. (8) The cells were re-suspended in 100 uL of PBS/0.1% saponin buffer, before adding 5 uL of the antibody to each tube and incubating for 30 minutes on ice. (9) The cells were washed with PBS/0.1% saponin buffer 3 times by centrifugation at 1500 rpm for 5 minutes. (10) The cells were re-suspended in 500 uL of ice cold FACS Buffer and kept in the dark on ice or at 4° C. in a fridge briefly until analysis. (11) The cells were analyzed on the flow cytometer (BD FACS Canto II). […]

Data set [1] has as its system MM1.S cells. Nature of the data set: Cytotoxicity of KHYG-1 cells with/without TRAIL variant in the presence of CMA. The format is cell-based. The following applies: 100 mM CMA for 2 hours, 1:1 ratio, 12 hours. On the procedure: KHYG-1 cells were transfected with the TRAIL variant (TRAIL D269H/E195R), as described above in Example 6. (1) MM1.S cells were used as target cells. (2) 6 hours after electroporation of TRAIL mRNA, KHYG-1 cells were treated with […] CMA or an equal volume of vehicle for 2 hours. […] (5) The KHYG-1 and MM1.S cells were mixed at 1:1 ratio and co-cultured for 12 hours. (6) Flow cytometric analysis of the cytotoxicity of KHYG-1 cells was carried out. The co-cultured cells were washed and stained with CD2-APC antibody (5 uL/test). (7) After washing, further staining was performed with AnnexinV-FITC (5 uL/test) and SYTOX-Green (5 uL/test) using AnnexinV binding buffer. (8) Data were further analyzed using FlowJo 7.6.2 software. CD2-negative population represents MM1.S cells. KHYG-1 cells are strongly positive for CD2. The AnnexinV-FITC and SYTOX-Green positive cells in CD2-negative population were then analyzed.

In a further data set the test system is KHYG-1 cells. Briefly: KHYG-1 cell viability after CMA treatment. The format is cell-based. The following applies: 100 nM CMA or vehicle.
Data set [2] relates to DR5. To be noted: 24 hours. On the procedure:
Bortezomib was bought from Millennium Pharmaceuticals. Mouse anti-human DR5-AF647 (catalog number: 565498) was bought from BD Pharmingen. The stained cell samples were analyzed on BD FACS Canto II.

Data set [3] concerns MM1.S cells. Briefly: Bortezomib-induced sensitization of MM1.S cells to KHYG-1 cells expressing TRAIL variant. In kind it is cell-based. To be noted: MM1.S pretreated with 2.5 nM for 24 hours, 1:1 ratio, 12 hours co-culture.
Description: (2) 6 hours after electroporation of TRAIL variant mRNA, KHYG-1 cells were then cultured with MM cells in 12-well plate. After washing, cell concentrations were adjusted to 1×10^6/mL, before mixing KHYG-1 and MM1.S cells at 1:1 ratio to culture for 12 hours. (3) Flow cytometric analysis of the cytotoxicity of KHYG-1 cells was carried out. The co-cultured cells were collected, washed and then stained with CD2-APC antibody (5 uL/test), AnnexinV-FITC (5 uL/test) and SYTOX-Green (5 uL/test) using AnnexinV binding buffer. (4) Data were further analyzed using FlowJo 7.6.2 software. CD2-negative population represents MM.1S cells. KHYG-1 cells are strongly positive for CD2. Finally, the AnnexinV-FITC and SYTOX-Green positive cells in the CD2-negative population were analyzed.
Data set [4] has as its target DR5 (Homo sapiens, UniProt O14763). The following applies: D269H/E195R mutation vs wildtype TRAIL; cited from earlier work.
The target of the next data set is T2, DcR2 (Homo sapiens, UniProt Q9UBN6).
T2 sequence (Q9UBN6 56-386): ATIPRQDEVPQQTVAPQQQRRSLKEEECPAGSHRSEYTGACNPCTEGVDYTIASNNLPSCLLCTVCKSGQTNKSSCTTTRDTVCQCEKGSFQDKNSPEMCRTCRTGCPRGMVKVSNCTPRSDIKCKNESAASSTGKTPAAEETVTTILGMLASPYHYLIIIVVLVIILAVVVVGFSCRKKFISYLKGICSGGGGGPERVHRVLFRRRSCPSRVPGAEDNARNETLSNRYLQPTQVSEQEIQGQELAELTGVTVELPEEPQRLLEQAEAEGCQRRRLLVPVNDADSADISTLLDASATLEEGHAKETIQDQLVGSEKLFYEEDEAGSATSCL
The following applies: D269H/E195R mutation vs wildtype TRAIL; cited from earlier work.

For a further data set, the target named is T3, DcR1 (Homo sapiens, UniProt O14798).
T3 sequence (O14798 26-236): T1 sequence (O14798 26-236)
To be noted: D269H/E195R mutation vs wildtype TRAIL; cited from earlier work.

With “g9 gRNA: gRNA candidate targeting hLIR2, GAGTCACAGGTGGCATTTGGCGG (SEQ ID NO: 3) (expressed or natural sequence; listed as Homo sapiens)”, the “gRNA cleavage efficiency (LIR2 knockout)” value in the data set on LIR2 gene was found to be 11%.

On to “Wildtype TRAIL: wildtype TRAIL ligand (CD253)”, for which the results for the dissociation constant Kd with decoy receptor DcR1 and in the data set with DR4 were over 20 nM and over 2 nM, respectively.

Take “g7 gRNA: gRNA candidate targeting hCTLA4, CACTCACCTTTGCAGAAGACAGG (SEQ ID NO: 9) (expressed or natural sequence; listed as Homo sapiens)”: the “gRNA cleavage efficiency at CTLA4 (T7E1)” value in the data set on CTLA4 gene was found to be 32%.

For “g15 gRNA: gRNA candidate targeting hCTLA4, CCTTGTGCCGCTGAAATCCAAGG (SEQ ID NO: 10) (expressed or natural sequence; listed as Homo sapiens)”, the “gRNA cleavage efficiency at CTLA4 (T7E1)” value in the data set with CTLA4 gene turned out to be 26%.

Consider `C/C=C/[C@H]1O[C@@](O)([C@@H](C)[C@H](O)[C@H](C)[C@H]2OC(=O)/C(OC)=C/C(C)=C/[C@@H](C)[C@@H](O)[C@@H](CC)[C@@H](O)[C@H](C)C/C(C)=C/C=C/[C@@H]2OC)C[C@@H](O[C@H]2C[C@@H](O)[C@H](OC(N)=O)[C@@H](C)O2)[C@@H]1C` [CMA, Concanamycin A], for which, in the data set on perforin, the perforin expression level entry is recorded as “significantly decreased”. For the same molecule, the “effect of CMA on cytotoxic activity of NK cells expressing TRAIL variant” value in the data set on MM1.S cells [1] is recorded as “unable to significantly diminish”. For the same molecule, the “viability of KHYG-1 cells” value with KHYG-1 cells is on record as “no negative effects”.

With “g18 gRNA: gRNA candidate targeting hLIR2, CGAATCGCAGGTGGTCGCACAGG (SEQ ID NO: 4) (expressed or natural sequence; listed as Homo sapiens)”, the “gRNA cleavage efficiency (LIR2 knockout)” value in the data set with LIR2 gene is recorded as 10%.

In the case of `CC(C)C[C@H](NC(=O)[C@H](Cc1ccccc1)NC(=O)c1cnccn1)B(O)O` [Bortezomib], the DR5 expression entry was “increase” with DR5 [2] (MM1.S cells, low dose); “could not be upregulated” with DR5 [2] (MM cells, high doses); “increase” with DR5 [2] (RPMI8226 cells, low dose). Besides, the “sensitivity of MM cells to KHYG-1 cells expressing the TRAIL variant” value in the data set with MM1.S cells [3] was “induced sensitivity”.

B1: TRAIL variant: described in WO 2009/077857; encoded by the wildtype TRAIL gene containing the D269H/E195R mutation (protein)
chain: MAMMEVQGGPSLGQTCVLIVIFTVLLQSLCVAVTYVYFTNELKQMQDKYSKSGIACFLKEDDSYWDPNDEESMNSPCWQVKWQLRQLVRKMILRTSEETISTVQEKQQNISPLVRERGPQRVAAHITGTRGRSNTLSSPNSKNEKALGRKINSWESSRSGHSFLSNLHLRNGELVIHEKGFYYIYSQTYFRFQERIKENTKNDKQMVQYIYKYTSYPDPILLMKSARNSCWSKDAEYGLYSIYQGGIFELKENDRIFVSVTNEHLIDMHHEASFFGAFLVG
With B1, the “affinity for DR5” value with DR5 [4] is recorded as “significantly increases the affinity”. In addition, the “affinity for decoy receptor DcR2” value with DcR2 is reported as “reducing the affinity”. Moreover, in the data set with DcR1, the “affinity for decoy receptor DcR1” value is on record as “reducing the affinity”.
